The test system of one experiment is HeLa. The experiment in a line: Cytotoxicity against human HeLa cells after 72 hrs. It counts as functional, cell-based.
The subject of a further experiment is L1210. Description: Cytotoxicity against mouse L1210 cells after 48 hrs. Type of experiment: functional, cell-based. As to conditions: L1210, 48 h.
A further experiment concerns CCRF-CEM. Description: Cytotoxicity against human CEM cells after 72 hrs. Type of experiment: functional, cell-based.
Experiment [1] has as its system Human immunodeficiency virus 2. The experiment in a line: Antiviral activity against HIV2 ROD infected in human CEM cells assessed as reduction of virus-induced cytopathicity after 4 to 5 days. It counts as functional, organism-based. As to conditions: ISOLATE ROD, CCRF-CEM. A general note: Cytopathic effects are the visible damage that an infection or toxin causes in cultured cells.

In experiment [2] the test system is Human immunodeficiency virus 1. Description: Antiviral activity against HIV1 3B infected in human CEM cells assessed as reduction of virus-induced cytopathicity after 4 to 5 days. Type of experiment: functional, organism-based. As to conditions: CCRF-CEM.
Another experiment deals with Punta Toro virus. The experiment in a line: Antiviral activity against Punta Toro virus by cell based assay. It counts as functional, organism-based.
Experiment [3] deals with Mammalian orthoreovirus 1. Description: Antiviral activity against Reovirus-1 by cell based assay. It counts as functional, organism-based.
The test system of another experiment is Influenza B virus. Description: Antiviral activity against Influenza B virus by cell based assay. It counts as functional, organism-based.
For experiment [4], the system named is Influenza A virus. The experiment in a line: Antiviral activity against Influenza A virus H3N2 by cell based assay. Type of experiment: functional, organism-based.
The next experiment deals with Sindbis virus. Description: Antiviral activity against Sindbis virus by cell based assay. Type of experiment: functional, organism-based.
Experiment [5] deals with Influenza A virus. The experiment in a line: Antiviral activity against Influenza A virus H1N1 by cell based assay. It counts as functional, organism-based.
For the next experiment, the system named is Human respirovirus 3. The experiment in a line: Antiviral activity against Parainfluenza-3 virus by cell based assay. Type of experiment: functional, organism-based.
A further experiment relates to Coxsackievirus B4. Description: Antiviral activity against Coxsackie virus B4 by cell based assay. Type of experiment: functional, organism-based.
Experiment [6] deals with Vesicular stomatitis virus. The experiment in a line: Antiviral activity against Vesicular stomatitis virus by cell based assay. It counts as functional, organism-based.
Experiment [7] relates to Respiratory syncytial virus. Description: Antiviral activity against Respiratory syncytial virus Long by cell based assay. It counts as functional, organism-based.
Another experiment deals with Vaccinia virus. The experiment in a line: Antiviral activity against Vaccinia virus Lederle by cell based assay. Type of experiment: functional, organism-based. As to conditions: Orthopoxvirus vaccinia.
Experiment [8] has as its system Human alphaherpesvirus 2. The experiment in a line: Antiviral activity against HSV-2 G by cell based assay. It counts as functional, organism-based. The conditions noted are these: strain G.
Experiment [9] deals with Human alphaherpesvirus 1. The experiment in a line: Antiviral activity against kinase-deficient acyclovir-resistant HSV-1 KOS by cell based assay. It counts as functional, organism-based.
Experiment [10] concerns Human alphaherpesvirus 2. Description: Antiviral activity against HSV-2 Lyons by cell based assay. It counts as functional, organism-based.
In experiment [11] the test system is Human alphaherpesvirus 1. The experiment in a line: Antiviral activity against HSV-1 KOS by cell based assay. Type of experiment: functional, organism-based.

Activity calls are given as the source filed them. No cut-off for these calls is given here.

As a reminder, the IC50 is the concentration that inhibits the measured activity by half. Higher therefore signals lower potency. For `CC(=O)OC[C@H]1O[C@@H](n2cc(C#Cc3ccccn3)c(=O)[nH]c2=O)[C@H](OC(C)=O)[C@@H](OC(C)=O)[C@@H]1OC(C)=O`, the figures for the 50% inhibitory concentration (IC50) with HeLa, in the experiment on L1210 and with CCRF-CEM were 90 µM, 115 µM and 139 µM, respectively.

Turning to `O=c1[nH]c(=O)n([C@@H]2O[C@H](CO)[C@@H](O)[C@H](O)[C@H]2O)cc1C#Cc1ccccn1`, the outcome (in experiment [1]; in [2]; with Punta Toro virus; in experiment [3]; in the experiment on Influenza B virus; with Influenza A virus [4]) was inactive. Also, the result (with Sindbis virus; in the experiment on Influenza A virus [5]; in the experiment with Human respirovirus 3; in the experiment with Coxsackievirus B4; in [6]; in experiment [7]) was inactive. The result in the experiment on Vaccinia virus, in the experiment with Human alphaherpesvirus 2 [8], with Human alphaherpesvirus 1 [9], with Human alphaherpesvirus 2 [10] and with Human alphaherpesvirus 1 [11] was inactive. Moreover, the IC50 in the experiment on HeLa came out at 66 µM; with L1210, 71 µM; in the experiment on CCRF-CEM, 79 µM.

Take `C[n+]1cccc(C#Cc2cn([C@@H]3O[C@H](CO)[C@@H](O)[C@H](O)[C@H]3O)c(=O)[nH]c2=O)c1`: the outcome (in [1]; in experiment [2]; with Punta Toro virus; in experiment [3]; with Influenza B virus; in the experiment on Influenza A virus [4]) was inactive. Also, the result (in the experiment with Sindbis virus; with Influenza A virus [5]; in the experiment on Human respirovirus 3; with Coxsackievirus B4; in experiment [6]; in experiment [7]) was inactive. Besides, the outcome in the experiment with Vaccinia virus, with Human alphaherpesvirus 2 [8], with Human alphaherpesvirus 1 [9], with Human alphaherpesvirus 2 [10] and in the experiment on Human alphaherpesvirus 1 [11] was inactive. Besides, the 50% inhibitory concentration (IC50) in the experiment with HeLa, in the experiment on L1210 and in the experiment on CCRF-CEM was over 250 µM each time.

As to `CCCc1cc2cn([C@@H]3O[C@H](CO)[C@@H](O)[C@H](O)[C@H]3O)c(=O)nc2o1`, the result (in experiment [1]; in experiment [2]; in the experiment on Punta Toro virus; in experiment [3]; with Influenza B virus; in the experiment on Influenza A virus [4]) was inactive. For the same molecule, the result (with Sindbis virus; in the experiment on Influenza A virus [5]; in the experiment with Human respirovirus 3; in the experiment on Coxsackievirus B4; in experiment [6]; in experiment [7]) was inactive. The result in the experiment on Vaccinia virus, in the experiment on Human alphaherpesvirus 2 [8], in the experiment on Human alphaherpesvirus 1 [9], in the experiment with Human alphaherpesvirus 2 [10] and in the experiment with Human alphaherpesvirus 1 [11] was inactive. Further, the IC50 in the experiment with HeLa was 125 µM; in the experiment on L1210 it was 132 µM; in the experiment on CCRF-CEM, 173 µM.

Turning to `C[n+]1ccccc1C#Cc1cn([C@@H]2O[C@H](CO)[C@@H](O)[C@H](O)[C@H]2O)c(=O)[nH]c1=O`, the result (in [1]; in experiment [2]; in the experiment on Punta Toro virus; in experiment [3]; with Influenza B virus; with Influenza A virus [4]) was inactive. Also, the result (in the experiment on Sindbis virus; in the experiment with Influenza A virus [5]; in the experiment on Human respirovirus 3; in the experiment with Coxsackievirus B4; in experiment [6]; in experiment [7]) was inactive. The outcome in the experiment with Vaccinia virus, in the experiment on Human alphaherpesvirus 2 [8], in the experiment on Human alphaherpesvirus 1 [9], in the experiment on Human alphaherpesvirus 2 [10] and in the experiment with Human alphaherpesvirus 1 [11] was inactive. Also, the results for the IC50 with HeLa, in the experiment on L1210 and in the experiment on CCRF-CEM were 244 µM, 152 µM and over 250 µM, respectively.

Consider `CCCC#Cc1cn([C@@H]2O[C@H](CO)[C@@H](O)[C@H](O)[C@H]2O)c(=O)nc1N`, for which the IC50 in the experiment on HeLa is 191 µM; in the experiment with L1210 it was at least 250 µM; with CCRF-CEM, over 250 µM.

On to `Nc1nc(=O)n([C@@H]2O[C@H](CO)[C@@H](O)[C@H](O)[C@H]2O)cc1C#Cc1ccccc1`, for which the IC50 in the experiment with HeLa was 201 µM; with L1210, at least 250 µM; with CCRF-CEM it was over 250 µM.

Consider `CCCCCc1ccc(C#Cc2cn([C@@H]3O[C@H](CO)[C@@H](O)[C@H](O)[C@H]3O)c(=O)nc2N)cc1`, for which the half-inhibitory concentration (IC50) in the experiment on HeLa was determined as 43 µM; in the experiment with L1210, 132 µM; in the experiment on CCRF-CEM it was 115 µM.

`CC(C)(C)c1ccc(C#Cc2cn([C@@H]3O[C@H](CO)[C@@H](O)[C@H](O)[C@H]3O)c(=O)nc2O)cc1`: the IC50 with HeLa is 37 µM; in the experiment with L1210, 185 µM; in the experiment with CCRF-CEM it was over 250 µM.

`CCCCCc1ccc(C#Cc2cn([C@@H]3O[C@H](CO)[C@@H](O)[C@H](O)[C@H]3O)c(=O)nc2O)cc1`: the concentration for half-maximal inhibition (IC50) with HeLa is 31 µM; in the experiment with L1210, 70 µM; with CCRF-CEM, 81 µM.

As to `O=c1nc(O)c(C#Cc2ccccc2)cn1[C@@H]1O[C@H](CO)[C@@H](O)[C@H](O)[C@H]1O`, the outcome (in [1]; in experiment [2]; in the experiment on Punta Toro virus; in [3]; in the experiment with Influenza B virus; in the experiment on Influenza A virus [4]) was inactive. Moreover, the result (in the experiment with Sindbis virus; in the experiment on Influenza A virus [5]; with Human respirovirus 3; with Coxsackievirus B4; in experiment [6]; in experiment [7]) was inactive. Further, the outcome in the experiment on Vaccinia virus, with Human alphaherpesvirus 2 [8], in the experiment on Human alphaherpesvirus 1 [9], in the experiment on Human alphaherpesvirus 2 [10] and in the experiment on Human alphaherpesvirus 1 [11] was inactive. For the same molecule, the half-maximal inhibitory concentration (IC50) in the experiment on HeLa worked out at 5.4 µM; with L1210 it was 6.2 µM; with CCRF-CEM it was 5.2 µM.

Regarding `C#Cc1cn([C@@H]2O[C@H](CO)[C@@H](O)[C@H](O)[C@H]2O)c(=O)nc1N`, the IC50 in the experiment with HeLa was at least 250 µM; with L1210, at least 250 µM; in the experiment on CCRF-CEM, over 250 µM.

For `C#Cc1cn([C@@H]2O[C@H](CO)[C@@H](O)[C@H](O)[C@H]2O)c(=O)[nH]c1=O`, the results for the half-maximal inhibitory concentration (IC50) in the experiment on HeLa, in the experiment on L1210 and in the experiment on CCRF-CEM were 231 µM, 141 µM and over 250 µM, respectively.

In the case of `CC(=O)OC[C@H]1O[C@@H](n2cc(C#Cc3cccc[n+]3C)c(=O)[nH]c2=O)[C@H](OC(C)=O)[C@@H](OC(C)=O)[C@@H]1OC(C)=O`, the IC50 in the experiment with HeLa is 232 µM; in the experiment with L1210 it was 203 µM; in the experiment with CCRF-CEM, over 250 µM.

`CC(=O)OC[C@H]1O[C@@H](n2cc(C#Cc3ccc[n+](C)c3)c(=O)[nH]c2=O)[C@H](OC(C)=O)[C@@H](OC(C)=O)[C@@H]1OC(C)=O`: the 50% inhibitory concentration (IC50) in the experiment on HeLa, in the experiment on L1210 and in the experiment with CCRF-CEM was over 250 µM in each case.

As for `CC(=O)OC[C@H]1O[C@@H](n2cc(C#Cc3cccnc3)c(=O)[nH]c2=O)[C@H](OC(C)=O)[C@@H](OC(C)=O)[C@@H]1OC(C)=O`, the IC50 with HeLa is over 250 µM; in the experiment with L1210, over 250 µM; in the experiment with CCRF-CEM it was 182 µM.

Regarding `O=c1[nH]c(=O)n([C@@H]2O[C@H](CO)[C@@H](O)[C@H](O)[C@H]2O)cc1CCc1ccccc1`, the IC50 is 43 µM in the experiment with HeLa, 300 µM with L1210 and 244 µM with CCRF-CEM.

Consider `CCCC#Cc1cn([C@@H]2O[C@H](CO)[C@@H](O)[C@H](O)[C@H]2O)c(=O)[nH]c1=O`, for which the IC50 in the experiment on HeLa was 95 µM; in the experiment with L1210 it was 115 µM; in the experiment on CCRF-CEM it was 123 µM.

As for `CC(C)(C)c1ccc(C#Cc2cn([C@@H]3O[C@H](CO)[C@@H](O)[C@H](O)[C@H]3O)c(=O)nc2N)cc1`, the IC50 in the experiment on HeLa was 140 µM; in the experiment with L1210, over 250 µM; in the experiment with CCRF-CEM it was over 250 µM.

`CCCCCC#Cc1cn([C@@H]2O[C@H](CO)[C@@H](O)[C@H](O)[C@H]2O)c(=O)nc1N`: the IC50 with HeLa was at least 250 µM; in the experiment on L1210, at least 250 µM; in the experiment on CCRF-CEM, over 250 µM.

For `CCCCCC#Cc1cn([C@@H]2O[C@H](CO)[C@@H](O)[C@H](O)[C@H]2O)c(=O)[nH]c1=O`, the concentration for half-maximal inhibition (IC50) was 29 µM with HeLa, 22 µM in the experiment with L1210 and 26 µM with CCRF-CEM.

(Values after ChEMBL document CHEMBL2331518, “Rapid microwave-enhanced synthesis of C5-alkynyl pyranonucleosides as novel cytotoxic antitumor agents” (Bioorg Med Chem Lett, 2013).)
